Tests used:
HT29 = assay: NCI 60 five-dose screen HT29; format: cell-based; conditions: Homo sapiens, HT-29, five-dose
NCI/ADR-RES = assay: NCI 60 five-dose screen NCI/ADR-RES; format: cell-based; conditions: Homo sapiens, five-dose
SF-295 = assay: NCI 60 five-dose screen SF-295; format: cell-based; conditions: Homo sapiens, five-dose
full NCI 60 cell panel = assay: NCI 60 Cell One-dose screen; format: cell-based, human; conditions: single high dose 10^−5 M, NCI 60 panel
Summary of the method: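 Single dose of 10^−5 M across the full NCI-60 human tumour cell panel. Value is percent growth relative to no-drug control and to time-zero cell number: 0–100 means growth inhibition, 0 means no net growth, below 0 means lethality (−100 = all cells dead).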

U251 = assay: NCI 60 five-dose screen U251; format: cell-based; conditions: Homo sapiens, U-251, five-dose
HCC-2998 = assay: NCI 60 five-dose screen HCC-2998; format: cell-based; conditions: Homo sapiens, five-dose
COLO 205 = assay: NCI 60 five-dose screen COLO 205; format: cell-based; conditions: Homo sapiens, five-dose
SR = assay: NCI 60 five-dose screen SR; format: cell-based, human; conditions: five-dose
M14 = assay: NCI 60 five-dose screen M14; format: cell-based; conditions: Homo sapiens, five-dose
HOP-92 = assay: NCI 60 five-dose screen HOP-92; format: cell-based; conditions: Homo sapiens, five-dose
CAKI-1 = assay: NCI 60 five-dose screen CAKI-1; format: cell-based; conditions: Homo sapiens, five-dose
UACC-257 = assay: NCI 60 five-dose screen UACC-257; format: cell-based; conditions: Homo sapiens, five-dose
KM12 = assay: NCI 60 five-dose screen KM12; format: cell-based; conditions: Homo sapiens, five-dose
ACHN = assay: NCI 60 five-dose screen ACHN; format: cell-based; conditions: Homo sapiens, five-dose
OVCAR-8 = assay: NCI 60 five-dose screen OVCAR-8; format: cell-based; conditions: Homo sapiens, five-dose
A498 = assay: NCI 60 five-dose screen A498; format: cell-based; conditions: Homo sapiens, five-dose
MCF7 = assay: NCI 60 five-dose screen MCF7; format: cell-based; conditions: Homo sapiens, five-dose
IGROV1 = assay: NCI 60 five-dose screen IGROV1; format: cell-based; conditions: Homo sapiens, IGROV-1, five-dose
UACC-62 = assay: NCI 60 five-dose screen UACC-62; format: cell-based; conditions: Homo sapiens, five-dose
HS 578T = assay: NCI 60 five-dose screen HS 578T; format: cell-based; conditions: Homo sapiens, five-dose
HCT-116 = assay: NCI 60 five-dose screen HCT-116; format: cell-based; conditions: Homo sapiens, five-dose
NCI-H522 = assay: NCI 60 five-dose screen NCI-H522; format: cell-based; conditions: Homo sapiens, five-dose
CCRF-CEM = assay: NCI 60 five-dose screen CCRF-CEM; format: cell-based; conditions: Homo sapiens, five-dose
NCI-H322M = assay: NCI 60 five-dose screen NCI-H322M; format: cell-based; conditions: Homo sapiens, five-dose
[1] = read-out: LC50 (the source's name) (converted)
[2] = read-out: LC50 (the source's name)

OC1CCC(Cn2c(C(F)(F)F)cc3c(Cl)ncnc32)CC1 (stereo not drawn) [NUCC-0226689]
GI50 (HT29): 15.5 µM
IC50 (HT29): 21.9 µM
IC (TGI) (HT29): 100 µM
CC50 (HT29; [1]): ≥ 100 µM
GI50 (NCI/ADR-RES): 26.3 µM
IC50 (NCI/ADR-RES): 43.7 µM
IC (TGI) (NCI/ADR-RES): 100 µM
CC50 (NCI/ADR-RES; [1]): ≥ 100 µM
GI50 (SF-295): 22.9 µM
IC50 (SF-295): 38.9 µM
IC (TGI) (SF-295): 83.2 µM
CC50 (SF-295; [1]): ≥ 100 µM
growth inhibition in the One-Dose Screen (full NCI 60 cell panel): significant growth inhibition
GI50 (U251): 3.24 µM
IC50 (U251): 4.27 µM
IC (TGI) (U251): 12.9 µM
CC50 (U251; [1]): 44.7 µM
GI50 (HCC-2998): 1.78 µM
IC50 (HCC-2998): 3.24 µM
IC (TGI) (HCC-2998): 3.31 µM
CC50 (HCC-2998; [1]): 6.17 µM
GI50 (COLO 205): 24.5 µM
IC50 (COLO 205): 45.7 µM
IC (TGI) (COLO 205): 100 µM
CC50 (COLO 205; [1]): ≥ 100 µM
GI50 (SR; Homo sapiens): 2.14 µM
IC50 (SR; Homo sapiens): 3.55 µM
CC50 (SR; Homo sapiens, read-out: LC50 (the source's name)): ≥ 100 µM
TGI (SR): 5.17 −log[M]
GI50 (M14): 4.9 µM
IC50 (M14): 8.71 µM
IC (TGI) (M14): 26.9 µM
CC50 (M14; [1]): ≥ 100 µM
GI50 (HOP-92): 20.4 µM
IC50 (HOP-92): 74.1 µM
IC (TGI) (HOP-92): 64.6 µM
CC50 (HOP-92; [1]): ≥ 100 µM
GI50 (CAKI-1): 16.6 µM
IC50 (CAKI-1): 33.1 µM
IC (TGI) (CAKI-1): 52.5 µM
CC50 (CAKI-1; [1]): ≥ 100 µM
GI50 (UACC-257): 3.39 µM
IC50 (UACC-257): 7.76 µM
IC (TGI) (UACC-257): 14.1 µM
CC50 (UACC-257; [1]): 56.2 µM
GI50 (KM12): 26.3 µM
IC50 (KM12): 37.2 µM
IC (TGI) (KM12): 93.3 µM
CC50 (KM12; [1]): ≥ 100 µM
GI50 (ACHN): 8.71 µM
IC50 (ACHN): 15.5 µM
IC (TGI) (ACHN): 50.1 µM
CC50 (ACHN; [1]): ≥ 100 µM
GI50 (OVCAR-8): 2.29 µM
IC50 (OVCAR-8): 3.63 µM
IC (TGI) (OVCAR-8): 5.37 µM
CC50 (OVCAR-8; [1]): 30.9 µM
GI50 (A498): 100 µM
IC50 (A498): 100 µM
IC (TGI) (A498): 100 µM
CC50 (A498; [1]): ≥ 100 µM
GI50 (MCF7): 37.2 µM
IC50 (MCF7): 52.5 µM
IC (TGI) (MCF7): 100 µM
CC50 (MCF7; [1]): ≥ 100 µM
GI50 (IGROV1): 1.95 µM
IC50 (IGROV1): 3.47 µM
IC (TGI) (IGROV1): 4.07 µM
CC50 (IGROV1; [1]): 8.51 µM
GI50 (UACC-62): 5.37 µM
IC50 (UACC-62): 11.5 µM
IC (TGI) (UACC-62): 19.5 µM
CC50 (UACC-62; [1]): 51.3 µM
GI50 (HS 578T): 13.8 µM
IC50 (HS 578T): 93.3 µM
IC (TGI) (HS 578T): 53.7 µM
CC50 (HS 578T; [2]): ≥ 100 µM
GI50 (HCT-116): 3.55 µM
IC50 (HCT-116): 4.17 µM
IC (TGI) (HCT-116): 15.8 µM
CC50 (HCT-116; [1]): 72.4 µM
GI50 (NCI-H522): 1.55 µM
IC50 (NCI-H522): 3.09 µM
IC (TGI) (NCI-H522): 3.55 µM
CC50 (NCI-H522; [1]): 8.13 µM
GI50 (CCRF-CEM): 5.62 µM
IC50 (CCRF-CEM): 9.33 µM
IC (TGI) (CCRF-CEM): 100 µM
CC50 (CCRF-CEM; [2]): ≥ 100 µM
GI50 (NCI-H322M): 3.8 µM
IC50 (NCI-H322M): 10.2 µM
IC (TGI) (NCI-H322M): 13.5 µM
CC50 (NCI-H322M; [1]): 38 µM

— US20240109903A1, “SUBSTITUTED HETEROCYCLES FOR TREATING CANCER” (Northwestern University, priority 2022, published 2024)
